Molecular target: HLA-DR10 (Homo sapiens, UniProt P01911)
Assay: Subsequent screenings of ligands for binding to HLA-DR10

Sequence of HLA-DR10 (P01911 30-266 with the stated changes): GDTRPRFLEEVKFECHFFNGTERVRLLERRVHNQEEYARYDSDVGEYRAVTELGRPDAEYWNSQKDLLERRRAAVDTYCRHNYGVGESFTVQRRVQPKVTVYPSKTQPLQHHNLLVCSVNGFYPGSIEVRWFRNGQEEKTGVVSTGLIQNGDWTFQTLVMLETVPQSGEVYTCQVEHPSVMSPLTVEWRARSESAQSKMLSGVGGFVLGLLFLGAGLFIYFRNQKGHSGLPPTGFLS
Sequence of HLA-DR10 (P01903 26-254 partner): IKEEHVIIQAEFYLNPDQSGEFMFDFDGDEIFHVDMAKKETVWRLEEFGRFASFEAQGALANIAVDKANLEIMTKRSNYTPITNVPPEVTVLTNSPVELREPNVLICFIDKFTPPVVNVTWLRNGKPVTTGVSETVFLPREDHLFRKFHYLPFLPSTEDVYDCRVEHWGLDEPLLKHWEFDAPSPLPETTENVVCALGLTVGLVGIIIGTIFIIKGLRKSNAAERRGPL

- observation with the target protein in screening: precipitated onto the target protein
SMILES: Nc1ccc(Oc2ccc(C(=O)c3ccc(C(=O)c4ccc(Oc5ccc(N)cc5)cc4)cc3)cc2)cc1 [1,4-Phenylenebis[[4-(4-aminophenoxy)phenyl]methanone]]

— US8536133B2, “Selective high-affinity polydentate ligands and methods of making such” (Lawrence Livermore National Security, LLC., priority 2004, dated 2013)
